Experimental data: US5017596A, “Arylpyrazolylcarbinol compounds with analgesic activity” (Laboratorios del Dr. Esteve, S.A., priority 1987, dated 1991)
Where two headings read alike, the source gives them in different places.

How the values were obtained:
Format in all cases: in vivo, Swiss male mice
Conditions in all cases: Mus musculus, po, read-out: % inhibition of contortions
[1] = system: contortions induced by acetic acid in mice; assay: Analgesic activity: inhibition of the contortions induced by acetic acid in mice (Koster's method)
Procedure: Swiss male mice weighing 17-22 grams are used. Groups containing a minimum of 4 animals for each dose are used.
Each product is suspended or dissolved in gum arabic at a concentration of 5% (w/v) in distilled water and is administered orally, at a dose of 160 mg/kg, 60 minutes before the injection of acetic acid.

[2] = system: contortions induced by phenylbenzoquinone in mice; assay: Analgesic activity: inhibition of the contortions induced by phenylbenzoquinone in mice (Siegmund's method)
Procedure: Analgesic activity: Inhibition of the contortions induced by phenylbenzoquinone in mice--Siegmund's method (E. Siegmund, R. Cadmus and G. Lu, Proc Soc. Exp. Biol. Med., 95, 729 (1957))
(§1) Swiss male mice weighing 17-22 grams are used. Groups containing a minimum of 4 animals are used.
Contortions are induced by the intraperitoneal injection of phenyl-p-benzoquinone (25 ml/kg of a 0.02% solution in a solution of ethanol at a concentration of 5% (v/v) in distilled water, with Evans blue in a proportion of 0.1% (w/v)) and are counted for 15 minutes as from the time of injection. Each product is suspended or dissolved in gum arabic at a concentration of 5% (w/v) in distilled water and is administered orally, at a dose of 160 mg/kg, 60 minutes before the injection of phenylbenzoquinone. The inhibition of contortions due to each product is determined, taking as the reference the contortions in a group of control animals to which only the vehicle is administered orally 60 minutes before the phenylbenzoquinone.

[3] = system: contortions induced by acetylcholine bromide in mice; assay: Analgesic activity: inhibition of the contortions induced by acetylcholine bromide in mice (Collier's method)
Procedure: as §1
Contortions are induced by the intraperitoneal injection of acetylcholine bromide (7.2 mg/kg, dissolved in physiological serum, a volume of 10 ml/kg of weight being administered) at the start of the experiment and the number of contortions is counted for 5 minutes, this being the reference number for each animal (mice with fewer than 2 contortions are rejected). Immediately afterwards, the test products are administered orally, at a dose of 160 mg/kg, in the form of a suspension or solution in gum arabic at a concentration of 5% (w/v) in distilled water. 40 and 120 minutes after the treatment, acetylcholine bromide is administered again, the contortions are noted and the readings at 40 and 120 minutes are evaluated, taking the contortions of the initial reading as the reference.

[4] = 160 mg/kg, administered orally, acetylcholine bromide 7.2 mg/kg i.p., mean of the values at 40 and 120 minutes
[5] = 160 mg/kg, administered orally 60 minutes before acetic acid i.p., contortions counted for 15 minutes
[6] = 160 mg/kg, administered orally 60 minutes before phenylbenzoquinone i.p., contortions counted for 15 minutes

SMILES	inhibition in vivo at 160 mg/kg [3, 4]	inhibition in vivo at 160 mg/kg [2, 6]	other results
CC(=O)Oc1ccccc1C(=O)O [Acetylsalicylic acid, reference compound]			inhibition in vivo at 160 mg/kg [1]: 72.5%; inhibition in vivo at 160 mg/kg [2]: 75%; inhibition in vivo at 160 mg/kg [3]: 92.5%
CN(C)CCOC(C)(c1ccc(Cl)cc1)c1nccn1C (stereo not drawn) [Example 2]	100%		
CN(C)CCOC(c1cccc(Cl)c1)c1nccn1C (stereo not drawn) [Example 4]	95%		
CN(C)CCOC(C)(c1ccccc1Cl)c1nccn1C (stereo not drawn) [Example 5]	100%		
CN(C)CCOC(C)(c1ccc(F)cc1)c1nccn1C (stereo not drawn) [Example 6]	75%		inhibition in vivo at 160 mg/kg [1, 5]: 50%
CN(C)CCOC(C)(c1cccc(C(F)(F)F)c1)c1nccn1C (stereo not drawn) [Example 7]	95%		inhibition in vivo at 160 mg/kg [1, 5]: 67.5%
CN(C)CCOC(C)(c1cccc(Cl)c1)c1nccn1C (stereo not drawn) [Example 8]	95%		
CCCCC(OCCN(C)C)(c1cccc(Cl)c1)c1nccn1C (stereo not drawn) [Example 9]	97.5%		
Cn1ccnc1C(C)(OCCN1CCCC1)c1cccc(Cl)c1 (stereo not drawn) [Example 12]			inhibition in vivo at 160 mg/kg [1, 5]: 82.5%
CCCCn1ccnc1C(OCCN(C)C)c1ccc(C(F)(F)F)cc1 (stereo not drawn) [Example 14]	85%		
CN(C)CCOC(C)(c1ccc(Cl)c(Cl)c1)c1nccn1C (stereo not drawn) [Example 18]		82.5%	
CN(C)CCOC(c1ccc(Cl)c(Cl)c1)c1nccn1C (stereo not drawn) [Example 19]		87.5%	
CN(C)CCOC(C)(c1ccc(Cl)cc1)c1nccn1CCN1CCCCC1 (stereo not drawn) [Example 20]		25%	
CCCCn1nccc1C(OCCN(C)C)c1ccccc1 (stereo not drawn) [Example 27]		40%	
CCCCn1nccc1C(C)(OCCN(C)C)c1ccc(Cl)cc1 (stereo not drawn) [Example 30]		27.5%	
CN(C)CCOC(c1ccccc1)c1ccnn1C (stereo not drawn) [Example 31]		80%	inhibition in vivo at 160 mg/kg [1, 5]: 80%
CN(C)CCOC(C)(c1ccccc1)c1ccnn1C (stereo not drawn) [Example 32]		37.5%	
COc1cc(C(OCCN(C)C)c2ccnn2C)cc(OC)c1OC (stereo not drawn) [Example 33]		35%	
Cn1nccc1C(OCCN1CCCC1)c1ccccc1 (stereo not drawn) [Example 34]			inhibition in vivo at 160 mg/kg [2]: 40%
CN(C)CCOC(c1ccccc1)c1c(Br)cnn1C (stereo not drawn) [Example 37]		77.5%	inhibition in vivo at 160 mg/kg [1, 5]: 72.5%
Cc1cc(C(C)(OCCN(C)C)c2ccccc2)n(C)n1 (stereo not drawn) [Example 38]		42.5%	

SMILES	inhibition in vivo at 160 mg/kg [3, 4]	inhibition in vivo at 160 mg/kg [2, 6]	other results
Cc1cc(C(OCCN(C)C)c2ccccc2)n(C)n1 (stereo not drawn) [Example 39]		37.5%	
CN(C)CCCOC(C)(c1ccc(Cl)cc1)c1nccn1C (stereo not drawn) [Example 59, α-(4-chlorophenyl)-α-methyl-1-methyl-0-(3-dimethylaminopropyl)-1H-imidazole-2-methanol]	100%		inhibition in vivo at 160 mg/kg [1, 5]: 87.5%
CN(C)CCCOC(c1cccc(Cl)c1)c1nccn1C (stereo not drawn) [Example 60]	82.5%		inhibition in vivo at 160 mg/kg [1, 5]: 62.5%
CCC(OCCCN(C)C)(c1ccc(Cl)cc1)c1nccn1C (stereo not drawn) [Example 61]	97.5%		
CN(C)CCCOC(C)(c1ccc(F)cc1)c1nccn1C (stereo not drawn) [Example 64]	100%		inhibition in vivo at 160 mg/kg [1, 5]: 50%
COc1cc(C(C)(OCCCN(C)C)c2nccn2C)cc(OC)c1OC (stereo not drawn) [Example 68]	95%		
COc1ccc(C(C)(OCCCN(C)C)c2nccn2C)cc1 (stereo not drawn) [Example 69]	95%		
CN(C)CCCOC(c1ccc(Cl)cc1)c1nccn1C (stereo not drawn) [Example 70]	100%		
CN(C)CCCOC(C)(c1ccc(C(F)(F)F)cc1)c1nccn1C (stereo not drawn) [Example 72]	100%		
CN(C)CCCOC(c1cccc(C(F)(F)F)c1)c1nccn1C (stereo not drawn) [Example 73]	100%		
CN(C)CCCOC(c1ccc(C(F)(F)F)cc1)c1nccn1C (stereo not drawn) [Example 74]	100%		
COc1ccc(C(OCCCN(C)C)c2nccn2C)cc1 (stereo not drawn) [Example 75]	100%		
CCCCC(OCCCN(C)C)(c1cccc(C(F)(F)F)c1)c1nccn1C (stereo not drawn) [Example 76]	100%		
CCCCn1ccnc1C(C)(OCCCN(C)C)c1ccc(Cl)cc1 (stereo not drawn) [Example 77]	100%		
Cn1ccnc1C(OCCCN1CCCCC1)c1ccc(Cl)cc1 (stereo not drawn) [Example 82]	83.8%		
Cn1ccnc1C(C)(OCCCN1CCCCC1)c1ccc(C(F)(F)F)cc1 (stereo not drawn) [Example 83]	88.3%		
CN(C)CCCOC(C)(c1ccc(Cl)c(Cl)c1)c1nccn1C (stereo not drawn) [Example 86]		98.8%	inhibition in vivo at 160 mg/kg [1, 5]: 50%
CN(C)CCCOC(c1ccc(Cl)c(Cl)c1)c1nccn1C (stereo not drawn) [Example 87]		77.5%	
CN(C)CCCOC(c1ccc(Cl)cc1)(c1nccn1C)C1CCN(C)CC1 (stereo not drawn) [Example 91]		57.5%	
CN(C)CCCOC(c1ccccc1)c1ccnn1C (stereo not drawn) [Example 94]		40%	
CN(C)CCCOC(C)(c1ccccc1)c1ccnn1C (stereo not drawn) [Example 95]		45%	

SMILES	inhibition in vivo at 160 mg/kg [3, 4]	inhibition in vivo at 160 mg/kg [2, 6]	other results
Cn1ccnc1C(O)c1ccc(Cl)cc1 (stereo not drawn) [Example 107]	57.5%		
Cn1ccnc1C(O)c1cccc(C(F)(F)F)c1 (stereo not drawn) [Example 110, 1-methyl-α-(3-trifluoromethylphenyl)-1H-imidazole-2-methanol]	57.5%		
Cn1ccnc1C(O)c1ccc(C(F)(F)F)cc1 (stereo not drawn) [Example 111]	87.5%		
Cn1ccnc1C(O)c1ccc(Cl)c(Cl)c1 (stereo not drawn) [Example 113]		57.5%	
CCCCn1ccnc1C(O)c1ccc(Cl)cc1Cl (stereo not drawn) [Example 115]		39.5%	inhibition in vivo at 160 mg/kg [1, 5]: 50%
CCCCn1ccnc1C(O)c1ccc(Cl)cc1 (stereo not drawn) [Example 116]		27.5%	
CCCCn1ccnc1C(O)c1cc(OC)c(OC)c(OC)c1 (stereo not drawn) [Example 117]	60%		
CCCCC(O)(c1cccc(Cl)c1)c1nccn1C (stereo not drawn) [Example 119]	90%		inhibition in vivo at 160 mg/kg [1, 5]: 45%
Cn1ccnc1C(C)(O)c1ccc(Cl)cc1 (stereo not drawn) [Example 121, α-(4-chlorophenyl)-α-methyl-1-methyl-1H-imidazole-2-methanol]	70%		
Cn1ccnc1C(C)(O)c1ccccc1Cl (stereo not drawn) [Example 126]	65%		
CCCCC(O)(c1ccccc1Cl)c1nccn1C (stereo not drawn) [Example 127]	70%		
Cn1ccnc1C(C)(O)c1cccc(C(F)(F)F)c1 (stereo not drawn) [Example 128]	82.5%	67.5%	inhibition in vivo at 160 mg/kg [1, 5]: 52.5%
CCCCC(O)(c1cccc(C(F)(F)F)c1)c1nccn1C (stereo not drawn) [Example 129]	55%		
COc1ccc(C(C)(O)c2nccn2C)cc1 (stereo not drawn) [Example 133]	52.5%		
COc1cc(C(C)(O)c2nccn2C)cc(OC)c1OC (stereo not drawn) [Example 137]	85%		
CCCCn1ccnc1C(O)(CCCC)c1cc(OC)c(OC)c(OC)c1 (stereo not drawn) [Example 141]	62.5%		
CCCCn1ccnc1C(O)(CCCC)c1ccccc1Cl (stereo not drawn) [Example 142]	80%		
CCCCn1ccnc1C(O)(CCCC)c1ccc(Cl)cc1Cl (stereo not drawn) [Example 144]	88.8%		
CN(C)CCCn1ccnc1C(C)(O)c1ccc(Cl)cc1 (stereo not drawn) [Example 146]		28.5%	
CN1CCOC(c2ccccc2)c2ccccc2C1 (stereo not drawn) [Nefopam, reference compound]	100%	97.5%	inhibition in vivo at 160 mg/kg [1, 5]: 98%
CC(=O)Nc1ccc(O)cc1 [Paracetamol, reference compound]	72.5%	47.5%	inhibition in vivo at 160 mg/kg [1, 5]: 20%
